Like-named read-outs stand apart in the source and are kept apart here.
Tests used:
[1] = system: V106A-RTV (HIV reverse transcriptase V106A); assay: Phenotypic susceptibility assay, V106A-RTV; format: cell-based, HIV-1; conditions: site directed mutant
Description: (§1) The resistance test vectors containing a functional luciferase gene cassette were constructed and host cells were transfected with the resistance test vector DNA. The resistant test vectors contained patient-derived reverse transcriptase and protease sequences that were either susceptible or resistant to the antiretroviral agents, such as nucleoside reverse transcriptase inhibitors, non-nucleoside reverse transcriptase inhibitors and protease inhibitors. The resistance test vector viral particles produced by transfecting the resistance test vector DNA into host cells, either in the presence or absence of protease inhibitors, were used to infect target host cells grown either in the absence of NRTI or NNRTI or in the presence of increasing concentrations of the drug. The amount of luciferase activity produced in infected target host cells in the presence of drug was compared to the amount of luciferase produced in infected target host cells in the absence of drug. Drug resistance was measured as the amount of drug required to inhibit by 50% the luciferase activity detected in the absence of drug (inhibitory concentration 50%, IC50). The IC50 values were determined by plotting percent drug inhibition vs. log10 drug concentration.
(§2) Host cells were seeded in 10-cm-diameter dishes and were transfected several days after plating with resistance test vector plasmid DNA and the envelope expression vector. Transfections were performed using a calcium-phosphate precipitation procedure. The cell culture media containing the DNA precipitate was replaced with fresh medium, from one to 24 hours, after transfection. Cell culture media containing resistance test vector viral particles was harvested one to four days after transfection and was passed through a […] filter before being stored at −80° C. HIV capsid protein (p24) levels in the harvested cell culture media were determined by an EIA method as described by the manufacturer (SIAC; Frederick, Md.). […] The inhibitory effect of the drug was determined using the following equation: […]

V106A-F227-RTV = assay: Phenotypic susceptibility assay, V106A-F227-RTV; format: cell-based, HIV-1; conditions: site directed mutant
Description: as §1, §2

Y181C-F227L-RTV = assay: Phenotypic susceptibility assay, Y181C-F227L-RTV; format: cell-based, HIV-1; conditions: values <1 = increased susceptibility
Description: as §1, §2

[2] = system: RTV-209 (patient sample 97-209); assay: Phenotypic susceptibility assay, RTV-209; format: cell-based, HIV-1; conditions: RTV-209, patient-derived pool
Experimental: Transfections were performed using a calcium-phosphate precipitation procedure. […] Cell lysates were assayed for luciferase activity (FIG. 3).
The drug inhibition curves are shown in (FIG. 3).
A resistance test vector was constructed as described in Example 1 from a patient sample designated 97-209. This patient had been previously treated with AZT, ddI, d4T and 3TC (NRTIs), indinavir (a PRIs) and adefovir. Isolation of viral RNA and RT/PCR was used to generate a patient derived segment that comprised viral sequences coding for all of PR and aa 1-313 of RT. The PDS was inserted into an indicator gene viral vector to generate resistance test vector designated RTV-209. RTV-209 was then tested in a phenotypic assay to determine accurately and quantitatively the level of susceptibility to a panel of anti-retroviral drugs. […] An IC50 was determined for the resistance test vector pool for each drug tested. […]. The pattern of susceptibility to all of the drugs tested was examined and compared to known patterns of susceptibility.

[3] = system: V108I -RTV (HIV reverse transcriptase V108I)
Description: as §1
as §2, with “Md.). Before infection, target cells (293 and 293/T) were plated in cell culture media. Control infections were performed using cell culture media from mock transfections (no DNA) or transfections containing the resistance test vector plasmid DNA without the envelope expression plasmid. One to three or more days after infection the media was removed and cell lysis buffer (Promega) was added to each well.” for “Md.).”
(§3) where RLUluc [drug] is the relative light unit of luciferase activity in infected cells in the presence of drug and RLUluc is the Relative Light Unit of luciferase activity in infected cells in the absence of drug. IC50 values were obtained from the sigmoidal curves that were generated from the data by plotting the percent inhibition of luciferase activity vs. the log10 drug concentration.

Y181C-A98G-RTV = system: Y181C-A98G-RTV
Description: as §1
as §2, with “Md.). Before infection, target cells (293 and 293/T) were plated in cell culture media. Control infections were performed using cell culture media from mock transfections (no DNA) or transfections containing the resistance test vector plasmid DNA without the envelope expression plasmid. One to three or more days after infection the media was removed and cell lysis buffer (Promega) was added to each well.” for “Md.).”
as §3

[4] = system: Y181I-RTV (HIV reverse transcriptase Y181I)
Description: as §1
as §2, with “Md.). Before infection, target cells (293 and 293/T) were plated in cell culture media. Control infections were performed using cell culture media from mock transfections (no DNA) or transfections containing the resistance test vector plasmid DNA without the envelope expression plasmid. One to three or more days after infection the media was removed and cell lysis buffer (Promega) was added to each well.” for “Md.).”
as §3

[5] = system: A98G-RTV (HIV reverse transcriptase A98G)
Description: as §1
as §2, with “Md.). Before infection, target cells (293 and 293/T) were plated in cell culture media. Control infections were performed using cell culture media from mock transfections (no DNA) or transfections containing the resistance test vector plasmid DNA without the envelope expression plasmid. One to three or more days after infection the media was removed and cell lysis buffer (Promega) was added to each well.” for “Md.).”
as §3

[6] = system: Y188C-RTV (HIV reverse transcriptase Y188C)
Description: as §1
as §2, with “Md.). Before infection, target cells (293 and 293/T) were plated in cell culture media. Control infections were performed using cell culture media from mock transfections (no DNA) or transfections containing the resistance test vector plasmid DNA without the envelope expression plasmid. One to three or more days after infection the media was removed and cell lysis buffer (Promega) was added to each well.” for “Md.).”
as §3

[7] = system: K103N-RTV (HIV reverse transcriptase K103N); assay: Phenotypic susceptibility assay, K103N-RTV; format: cell-based, HIV-1; conditions: site directed mutant
Description: as §1
Host cells were seeded in 10-cm-diameter dishes and were transfected several days after plating with resistance test vector plasmid DNA and the envelope expression vector. Transfections were performed using a calcium-phosphate precipitation procedure. […] HIV capsid protein (p24) levels in the harvested cell culture media were determined by an EIA method as described by the manufacturer (SIAC; Frederick, Md.). […] The inhibitory effect of the drug was determined using the following equation: […]
The mutations Y188L, L100I and K103N were introduced alone and in combinationn into resistance test vectors using the mega-primer method for site-directed mutagenesis (Sakar and Sommar, Ibid.). […] We determined the pattern of phenotypic susceptibility to the NNRTIs, delavirdine, nevlrapine and efavirenz, in all 6 vectors.

V106A-Y181C-F227L-RTV = assay: Phenotypic susceptibility assay, V106A-Y181C-F227L-RTV; format: cell-based, HIV-1; conditions: site directed mutant
Description: as §1, §2

[8] = system: G190A-RTV (HIV reverse transcriptase G190A); assay: Phenotypic susceptibility assay, G190A-RTV; format: cell-based, HIV-1
Description: as §1
as §2, with “Md.). Before infection, target cells (293 and 293/T) were plated in cell culture media. Control infections were performed using cell culture media from mock transfections (no DNA) or transfections containing the resistance test vector plasmid DNA without the envelope expression plasmid. One to three or more days after infection the media was removed and cell lysis buffer (Promega) was added to each well.” for “Md.).”
where RLUluc [drug] is the relative light unit of luciferase activity in infected cells in the presence of drug and RLUluc is the Relative Light Unit of luciferase activity in infected cells in the absence of drug. […]

Row | SMILES | fold loss of susceptibility compared to wild type control RTV [1] [fold] | fold loss of susceptibility compared to wild type control RTV (V106A-F227-RTV) | fold change in susceptibility compared to wild type control RTV (Y181C-F227L-RTV) [fold] | fold decrease in susceptibility (IC50) [2] | fold change in susceptibility compared to wild type control RTV [3] [fold] | fold loss of susceptibility compared to wild type control RTV (Y181C-A98G-RTV) | fold loss of susceptibility compared to wild type control RTV [4] [fold] | fold loss of susceptibility compared to wild type control RTV [5] [fold] | fold loss of susceptibility compared to wild type control RTV [6] [fold] | fold loss of susceptibility compared to wild type control RTV [7] [fold] | fold loss of susceptibility compared to wild type control RTV (V106A-Y181C-F227L-RTV) | change in susceptibility compared to wild type reference RTV [8] | change in susceptibility compared to wild type reference RTV ([8]; listed as delviridine) | fold change in susceptibility compared to wild type control RTV ([8]; site directed mutant) [fold]
1 | CC(C)Nc1cccnc1N1CCN(C(=O)c2cc3cc(NS(C)(=O)=O)ccc3[nH]2)CC1 [delavirdine] | 5 | 3 fold | 0.89 | 75 fold | 1.3 | 240 fold | 20 | 3 | 3 | 50 | 50 fold | slightly more susceptible to delavirdine | increased susceptibility | 
2 | O=C1Nc2ccc(Cl)cc2[C@@](C#CC2CC2)(C(F)(F)F)O1 [efavirenz] | 1.7 | 8 fold | 0.99 |  | 1.7 | 7 fold | 1.4 | 3 | 20 | 30 | 12 fold |  |  | 8
3 | Cc1ccnc2c1NC(=O)c1cccnc1N2C1CC1 [nevirapine] | 60 | greater than 800 fold | 285 | greater than 800 fold | 3 | greater than 800 fold | 740 | 8 | 30 | 55 | greater than 800 fold | markedly less susceptible to nevirapine |  | 
